Source: patent US10731159B2, “Cationic lipid” (DAIICHI SANKYO COMPANY, LIMITED, priority 2013, dated 2020)

Legend:
[1] = Rate of encapsulation of polynucleotide/mRNA (Quant-iT RiboGreen, with and without Triton X-100); type: physicochemical
Protocol: The rate of encapsulation of the double-stranded polynucleotide was measured using Quant-iT RiboGreen RNA Assay kit (Invitrogen Corp.) according to the attached document.
(§1) Specifically, the double-stranded polynucleotide in the nucleic acid lipid particle dispersion was quantified in the presence and absence of a 0.015% Triton X-100 detergent, and the rate of encapsulation was calculated according to the following expression: {[Amount of the double-stranded polynucleotide in the presence of the detergent]−[Amount of the double-stranded polynucleotide in the absence of the detergent]}/[Amount of the double-stranded polynucleotide in the presence of the detergent]}×100(%) (3) Ratio of Double-Stranded Polynucleotide to Lipid
The rate of encapsulation of the mRNA was measured using Quant-iT RiboGreen RNA Assay kit (Invitrogen Corp.) according to the attached document.
as §1, with “mRNA” for “double-stranded polynucleotide”, “mRNA” for “Double-Stranded Polynucleotide”

[2] = Ratio of polynucleotide/mRNA to lipid (wt/wt); type: physicochemical
Protocol: The nucleic acid lipid particle dispersion was mixed with acetonitrile and chloroform at a ratio of 1:1:1 and centrifuged at 15,000 rpm for 2 minutes. Then, the aqueous layer obtained as an upper layer was recovered, followed by the extraction of the double-stranded polynucleotide. The amount of the double-stranded polynucleotide in the sample was measured by ion-exchange chromatography (system: Agilent 1100 series, column: TSKgel DEAE-2SW (2.6×150 mm) (Tosoh Corp), buffer A: 20% acetonitrile, buffer B: 20% acetonitrile and 1.6 M ammonium formate, gradient (B %): 30-55% (0-20 min), flow rate: 1 mL/min, temperature: 40° C., detection: 260 nm).
The amount of the phospholipid in the nucleic acid lipid particle dispersion was measured using Phospholipid C-Test Wako (Wako Pure Chemical Industries Ltd.) according to the attached document. Specifically, the phospholipid in the sample was quantified in the presence of a 1% Triton X-100 detergent.
(§2) The amounts of cholesterol and LP in the nucleic acid lipid particle dispersion were measured by reverse-phase chromatography (system: Agilent 1100 series, column: Chromolith Performance RP-18 endcapped 100-3 monolithic HPLC-column (Merck), buffer A: 0.01% trifluoroacetic acid, buffer B: 0.01% trifluoroacetic acid and methanol, gradient (B %): 87-92% (0-10 min), flow rate: 2 mL/min, temperature: 50° C., detection: 205 nm).
(§3) The total amount of lipids was calculated from the amount of the phospholipid and the compositional ratio of lipid components constituting the liposome, and the ratio of the polynucleotide to the lipid was calculated from the aforementioned amount of the polynucleotide and the total amount of lipids according to the following expression: [Double-stranded polynucleotide concentration]/[Total lipid concentration] (wt/wt)
as §3, with “phospholipid, the amount of cholesterol, and the amount of LP,” for “phospholipid”
The amount of the double-stranded polynucleotide in a sample from the nucleic acid lipid particle dispersion was measured in the presence of a 5% Triton X-100 detergent by ion-exchange chromatography (system: Agilent 1100 series, column: DNAPac PA200 (4×250 mm) (Thermo Fisher Scientific K.K.), buffer A: 10 mM Tris, 25 mM sodium perchlorate, and 20% ethanol, pH 7.0, buffer B: 10 mM Tris, 250 mM sodium perchlorate, and 20% ethanol, pH 7.0, gradient (B %): 20-70% (0-15 min), flow rate: 0.5 mL/min, temperature: 40° C., detection: 260 nm).
as §2, with “82-92%” for “87-92%”
The total amount of lipids was calculated from the amount of the phospholipid, the amount of cholesterol, and the amount of LP, and the compositional ratio of lipid components constituting the liposome, and the ratio of the mRNA to the lipid was calculated from the “amount of the mRNA in the presence of the detergent” of the preceding paragraph (2) according to the following expression: [mRNA concentration in the presence of the detergent]/[Total lipid concentration] (wt/wt)

[3] = tested on: human β-catenin gene; experiment: Test Example 2: β-catenin gene expression inhibition in HepG2 cells, 3 days, real-time PCR; type: cell-based; details: for inhibitory activity against β-catenin gene expression (in words): compared with particle containing lipid of Reference Example 2; for IC50: nucleic acid lipid particle of Example 31 containing the named lipid, read-out: β-catenin gene expression inhibitory activity IC50
Protocol: (§4) As described below, the strength of human β-catenin gene expression inhibitory activity was compared among nucleic acid lipid particles each prepared using a novel lipid.
The concentration of a human liver cancer HepG2 cell line (derived from human liver cancer) was adjusted to 50000 cells/mL in a DMEM medium (manufactured by Invitrogen Corp.) containing 10% fetal bovine serum (culture medium). Then, the resulting culture solution was inoculated at 100 μL/well to a 96-well flat-bottomed plate (manufactured by Corning Inc./Falcon) and cultured at 37° C. for 1 day under 5.0% CO2. The nucleic acid lipid particle-containing dispersion prepared in Example 31 was diluted with a culture medium to prepare dilution series having final double-stranded polynucleotide concentrations of 30, 3, 0.3, and 0.03 nM in the medium. Then, each dilution was added to the cells after removal of the culture supernatant, and the culture was further continued for 3 days. This operation was performed at N=3 for each concentration.
(§5) A lysate and cDNA for real-time PCR measurement were prepared from the transfected cells using TaqMan® Fast-Cells-to-Ct kit (Life Technologies, Inc./Ambion) according to the instruction manual. In the lysate preparation, Lysis Solution supplemented with DNase I was used. The probes for real-time PCR used were TaqMan® Gene Expression Assays (CTNNB1, FAM probe) (Hs00355045_m1, manufactured by Applied Biosystems, Inc.) for the human β-catenin gene and a human GAPDH gene probe as an internal standard (VIC probe, Hs99999905_m1, manufactured by Applied Biosystems, Inc.). 5 μL of TaqMan® Fast Advanced Master Mix, 2 μL of RNase-Free Water, 0.5 μL of each gene probe, and 2 μL of the prepared cDNA solution were added per well of a 384-well PCR plate (manufactured by Applied Biosystems, Inc.) to bring the total amount to 10 μL, which was then loaded in ViiA™ 7 Real-time PCR system (manufactured by Applied Biosystems, Inc.) and subjected to PCR under conditions given below. The real-time PCR was carried out at N=4 for the cDNA prepared from the lysate.
(§6) PCR initial activation: 95° C. for 20 seconds
(§7) PCR: 95° C. for 1 second • 62° C. for 20 seconds
(§8) This PCR cycle was repetitively performed 40 times.
(§9) The quantitative analysis was conducted by the ΔΔCt method.

[4] = tested on: human β-catenin gene; experiment: Test Example 1: β-catenin gene expression inhibition in SW480 cells, 3 days, real-time PCR; type: cell-based; details: for inhibitory activity against β-catenin gene expression (in words): compared with particle containing lipid of Reference Example 2; for IC50: nucleic acid lipid particle of Example 31 containing the named lipid, double-stranded polynucleotide concentration, read-out: β-catenin gene expression inhibitory activity IC50
Protocol: as §4
(§10) The concentration of a human colorectal cancer SW480 cell line (derived from human colorectal adenocarcinoma) was adjusted to 50,000 cells/mL in an RPMI1640 medium (manufactured by Invitrogen Corp.) containing 10% fetal bovine serum (culture medium). Then, the resulting culture solution was inoculated at 100 μL/well to a 96-well flat-bottomed plate (manufactured by Corning Inc./Falcon) and cultured at 37° C. for 1 day under 5.0% CO2. The nucleic acid lipid particle dispersion prepared in Example 31 was diluted with a culture medium to prepare dilution series having final double-stranded polynucleotide concentrations of 30, 3.0, 0.3, and 0.03 nM in the medium. Then, each dilution was added to the cells after removal of the culture supernatant, and the culture was further continued for 3 days. This operation was performed at N=3 for each concentration.
as §5, §6, §7, §8, §9

[5] = Average particle size of nucleic acid lipid particle (NICOMP 380ZLS); type: physicochemical
Protocol: The particle size of the liposome was measured using Zeta Potential/Particle Sizer NICOMP™ 380ZLS (Particle Sizing Systems, LLC). In the tables, the average particle size is indicated by a volume-average particle size, and the numeric value following ±represents a deviation.

[6] = tested on: human β-catenin gene; experiment: Test Example 8: β-catenin gene expression inhibition in SW480 cells, procedures of Test Example 3, 50-0.05 nM; type: cell-based; details: for inhibitory activity against β-catenin gene expression (in words): compared with particle containing lipid of Reference Example 2; for IC50: procedures of Test Example 3, 50, 5, 0.5, 0.05 nM, particles of Example 55, read-out: β-catenin gene expression inhibitory activity IC50
Protocol: as §10, with “to 50000” for “to 50,000”, “in a” for “in an”, “lipid particle-containing” for “lipid particle”, “30, 3,” for “30, 3.0,”, “for 4 hours.” for “for 3 days.”
as §5, §9
By the same procedures as in Test Example 3, SW480 cells were treated with 50 nM, 5 nM, 0.5 nM, and 0.05 nM each of nucleic acid lipid particles each prepared using a novel lipid, and the strength of human β-catenin gene expression inhibitory activity was compared among these particles.

[7] = particles of Example 31: DSPC:Chol:LP:PEG-C-DMA=20:48:30:2, CT-157/CT-169 double-stranded polynucleotide
[8] = particles of Example 31, total lipids calculated from phospholipid amount and compositional ratio (Table 3)
[9] = particles of Example 31, volume-average particle size ± deviation
[10] = Example 55: particles prepared as in Example 31 (β-catenin double-stranded polynucleotide)
[11] = Example 55: particles prepared as in Example 31
[12] = Example 55: particles prepared as in Example 31, ± deviation

Row | Rate of polynucleotide encapsulation [1, 10] | Ratio of polynucleotide to lipid siRNA/lipid [2, 11] | IC50 [6] | Average particle size [5, 12] | SMILES | Rate of polynucleotide encapsulation [1, 7] | Ratio of polynucleotide to lipid siRNA/lipid [2, 8] | inhibitory activity against β-catenin gene expression (in words) [3] | IC50 [3] | inhibitory activity against β-catenin gene expression (in words) [4] | IC50 [4] | Average particle size [5, 9] | inhibitory activity against β-catenin gene expression (in words) [6]
1 | – | – | – | – | CCCCC/C=C\C/C=C\CCCCCCCCC(CCCCCCCC/C=C\C/C=C\CCCCC)OC(=O)OCCCN(C)C [Example 1, 3-(Dimethylamino)propyl(6Z,9Z,28Z,31Z)-heptatriaconta-6,9,28,31-tetraen-19-yl Carbonate] | 94.3% | 0.109 wt/wt | strong inhibitory activity | 0.38 nM | strong inhibitory activity | 3.5 nM | 183 ± 41 nm | –
2 | – | – | – | – | CCCCC/C=C\C/C=C\CCCCCCCC(CCCCCCC/C=C\C/C=C\CCCCC)OC(=O)OCCCN(C)C [Example 2, 3-(Dimethylamino)propyl(6Z,9Z,26Z,29Z)-pentatriaconta-6,9,26,29-tetraen-18-yl Carbonate] | 96.3% | 0.099 wt/wt | strong inhibitory activity | 0.47 nM | strong inhibitory activity | 6.8 nM | 215 ± 70 nm | –
3 | – | – | – | – | CCCCC/C=C\C/C=C\CCCCCCCC(CCCCCCC/C=C\C/C=C\CCCCC)OC(=O)OCCCCN(C)C [Example 3, 4-(Dimethylamino)butyl(6Z,9Z,26Z,29Z)-pentatriaconta-6,9,26,29-tetraen-18-yl Carbonate] | 98.6% | 0.099 wt/wt | strong inhibitory activity | 0.35 nM | strong inhibitory activity | 0.44 nM | 187 ± 31 nm | –
4 | 97% | 0.101 wt/wt | 2.6 nM | 158 ± 40 nm | CCCCCC[C@H](C/C=C\CCCCCCCC(CCCCCCC/C=C\C[C@@H](CCCCCC)OC(=O)CC)OC(=O)OCCCN(C)C)OC(=O)CC [Example 41, (7R,9Z,26Z,29R)-18-({[3-(Dimethylamino)propoxy]carbonyl}oxy)pentatriaconta-9,26-diene-7,29-diyl Dipropionate] | – | – | – | – | – | – | – | strong inhibitory activity
5 | 97% | 0.077 wt/wt | 6 nM | 188 ± 45 nm | CCCCCC[C@H](C/C=C\CCCCCCCCC(CCCCCCCC/C=C\C[C@@H](CCCCCC)OC(C)=O)OC(=O)OCCCN(C)C)OC(C)=O [Example 42, (7R,9Z,28Z,31R)-19-({[3-(Dimethylamino)propoxy]carbonyl}oxy)heptatriaconta-9,28-diene-7,31-diyl Diacetate] | – | – | – | – | – | – | – | strong inhibitory activity
6 | 97% | 0.075 wt/wt | 24 nM | 174 ± 31 nm | CCCCCCCCCCCCC(CCCCCCC/C=C\C[C@@H](CCCCCC)OC(C)=O)OC(=O)OCCCN(C)C (stereo partly drawn) [Example 43, (7R,9Z)-18-({[3-(Dimethylamino)propoxy]carbonyl}oxy)triacont-9-en-7-yl Acetate] | – | – | – | – | – | – | – | strong inhibitory activity
